Values quoted from earlier work in patent US8586760B2, “Aminothiazole modulators of beta-3-adrenoreceptor” (Auspex Pharmaceuticals, Inc., priority 2009, dated 2013).

Key:
CYP3A4 = CYP3A4 (Homo sapiens, UniProt P08684)
CYP2D6 = CYP2D6 (Homo sapiens, UniProt P10635)
[1] = poor metabolizers compared to extensive metabolizers

Sequence of CYP3A4 (P08684 whole entry): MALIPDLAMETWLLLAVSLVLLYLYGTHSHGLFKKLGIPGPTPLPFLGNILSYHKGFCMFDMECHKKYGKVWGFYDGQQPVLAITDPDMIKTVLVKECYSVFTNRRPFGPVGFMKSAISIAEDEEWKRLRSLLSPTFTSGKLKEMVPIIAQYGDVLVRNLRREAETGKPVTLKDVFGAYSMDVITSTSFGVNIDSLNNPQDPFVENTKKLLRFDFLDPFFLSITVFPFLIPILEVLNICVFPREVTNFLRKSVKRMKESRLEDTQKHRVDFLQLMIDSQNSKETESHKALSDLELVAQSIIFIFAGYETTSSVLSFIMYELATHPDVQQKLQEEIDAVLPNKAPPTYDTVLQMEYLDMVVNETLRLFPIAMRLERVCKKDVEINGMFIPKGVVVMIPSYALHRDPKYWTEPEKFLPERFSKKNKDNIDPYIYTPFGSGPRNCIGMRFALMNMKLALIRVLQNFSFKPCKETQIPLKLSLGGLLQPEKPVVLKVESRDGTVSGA
Sequence of CYP2D6 (P10635 whole entry): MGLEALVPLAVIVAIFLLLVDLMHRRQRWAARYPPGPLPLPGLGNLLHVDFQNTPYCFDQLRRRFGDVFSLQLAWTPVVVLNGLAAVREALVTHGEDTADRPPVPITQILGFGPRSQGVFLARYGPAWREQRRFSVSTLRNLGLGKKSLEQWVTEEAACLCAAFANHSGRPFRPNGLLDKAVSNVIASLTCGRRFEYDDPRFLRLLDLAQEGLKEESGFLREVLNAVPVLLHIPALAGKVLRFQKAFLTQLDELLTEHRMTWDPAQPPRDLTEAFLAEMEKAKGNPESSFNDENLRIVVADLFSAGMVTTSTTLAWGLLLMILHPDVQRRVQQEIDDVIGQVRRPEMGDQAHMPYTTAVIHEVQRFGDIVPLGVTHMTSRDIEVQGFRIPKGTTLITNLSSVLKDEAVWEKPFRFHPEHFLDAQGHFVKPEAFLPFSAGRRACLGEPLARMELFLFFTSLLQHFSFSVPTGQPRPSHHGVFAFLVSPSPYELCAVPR

## Nc1nc(CC(=O)Nc2ccc(CCNC[C@H](O)c3ccccc3)cc2)cs1 [Mirabegron, 2-amino-N-[4-[2-[[(2R)-2-hydroxy-2-phenylethyl]amino]ethyl]phenyl]-4-thiazoleacetamide]
CYP3A4
  metabolism by CYP3A4: oxidative cleavage
Poor metabolizers
  Intersubject variability: generally higher
[1]
  Mean Cmax: slightly higher
  mean AUC: slightly higher
  t1/2: longer
CYP2D6
  metabolism by CYP2D6: oxidative cleavage
